Patent US20030180924A1, “Formulation of certain pyrazolo [3,4,-d] pyrimidines as kinase modulators” (priority 2002, published 2003)
Where two headings read alike, the source gives them in different places.

Assays:
[1] = Bioavailability testing, IV treatment (whole blood, LC/MS); format: in vivo; conditions: male CD-1 mice; for AUC: whole blood; for clearance / Vd: mouse, in vivo; for Vd: read-out: Vdss
Method: (§1) Compositions comprising the free base of 1-Na-PP1 and 1-NM-PP1 (Control) and the hydrochloride salt of 1-Na-PP1 and 1-NM-PP1 formulated with Vitamin E TPGS are administered to male CD-1 mice intraperitoneally (IP) and intravenously (IV). Whole blood samples were collected from three animals per time point and prior via cardiac puncture into EDTA tubes and placed on wet ice. Samples were analyzed after drying and predissolution in 0.1:20:80 formic acid:methanol:water by liquid chromatography/mass spectrometry using an Xterra C182.5 micromenter particle size analytical column (15 mm×2.1 mm).

[2] = Bioavailability testing, IP treatment (whole blood, LC/MS); format: in vivo; conditions: 0.793 mg/Kg, male CD-1 mice; for AUC / Cmax: whole blood; for Tmax / bioavailability / half-life / Cmax: mouse, in vivo; for half-life: read-out: T½ (converted)
Method: as §1

Row | Compound | AUC/Dose ([1]; 0.793 mg/Kg) | T½ ([1]; 0.793 mg/Kg) | AUC ([1]; 0.793 mg/Kg) | clearance ([1]; 0.793 mg/Kg) | Vd ([1]; 0.793 mg/Kg) | AUC/Dose [2] | AUC [2] | Tmax [2] | bioavailability [2] | half-life [2] | Cmax [2] | AUC/Dose ([1]; 0.269 mg/Kg) | T½ ([1]; 0.269 mg/Kg) | AUC ([1]; 0.269 mg/Kg) | clearance ([1]; 0.269 mg/Kg) | Vd ([1]; 0.269 mg/Kg)
1 | CC(C)(C)n1nc(Cc2cccc3ccccc23)c2c(N)ncnc21 [1-NM-PP1 (Control)] | 0.13 ng·h/mL/µg/kg | 23.4 min | 37.08 ng·h/mL | 130 mL/min/kg | 4.1 L/kg | 0.16 ng·h/mL/µg/kg | 134.84 ng·h/mL | 4.98 min | 100% | 85.2 min | 90.6 ng/mL | – | – | – | – | –
2 | CC(C)(C)n1nc(-c2cccc3ccccc23)c2c(N)ncnc21 [1-Na-PP1 (Control), 1-tert-butyl-3-naphthalen-1-yl-1H-pyrazolo[3,4-d]pyrimidin-4-ylamine] | – | – | – | – | – | 0.13 ng·h/mL/µg/kg | 99.37 ng·h/mL | 4.98 min | 100% | 90.6 min | 55 ng/mL | 0.12 ng·h/mL/µg/kg | 27.6 min | 32.14 ng·h/mL | 133 mL/min/kg | 5.3 L/kg
